We go through 25 molecules from ChEMBL document CHEMBL2321772 (J Med Chem, 2013).

In general, logD refers to lipophilicity at a set pH, counting ionised and neutral species. Low readings indicate a more hydrophilic compound, high ones a more lipophilic compound. For orientation: bioavailability means the share of a dose that reaches the circulation, judged against a reference dose that is usually intravenous. Low readings indicate poor availability, high ones good availability. The half-life is the time needed for the level to fall by half in the phase considered. Low readings indicate rapid decline, high ones slow decline. What is called clearance is a measure of how efficiently the substance is removed, as volume per time. Read a low clearance as inefficient removal.

A short description of series [1]: physchem. The note with it: octanol/water.
Series [2] in a line: Oral bioavailability in dog. Format: ADME, organism-based, Canis lupus familiaris. Particulars: in vivo.
The nature of series [3]: Oral bioavailability in rat. The note with it: in vivo. In kind it is ADME, organism-based.
Series [4] can be described thus: Oral bioavailability in mouse. Format: ADME, organism-based. The note with it: in vivo.
Series [5] in a line: Half life in dog. In kind it is ADME, organism-based, Canis lupus familiaris. The note with it: in vivo.
A short description of series [6]: Half life in rat. Format: ADME, organism-based. The note with it: in vivo.
A short description of series [7]: Half life in mouse. Format: ADME, organism-based. Particulars: in vivo.
Series [8] can be described thus: Volume of distribution at steady state in dog. In kind it is ADME, organism-based, Canis lupus familiaris. Particulars: in vivo, read-out: Vdss.
Series [9] can be described thus: Clearance in rat. The note with it: in vivo. Format: ADME, organism-based.
Series [10] in a line: Clearance in mouse. In kind it is ADME, organism-based. Particulars: in vivo.
Series [11] in a line: Intrinsic clearance in dog hepatocytes assessed per million of cells. The note with it: read-out: CLH. Format: ADME, cell-based, Canis lupus familiaris, Hepatocyte.
Series [12] in a line: Intrinsic clearance in rat hepatocytes assessed per million of cells. In kind it is ADME, cell-based, Hepatocyte. Particulars: read-out: CLH.
The nature of series [13]: Intrinsic clearance in mouse hepatocytes assessed per million of cells. Format: ADME, cell-based, Hepatocyte. Particulars: read-out: CLH.
A short description of series [14]: in vitro. Particulars: human, hepatocytes.

As to `NC1(C(=O)NC(CO)c2ccc(Cl)cc2)CCN(c2ncnc3[nH]ccc23)CC1` (racemic), the logD in [1] was 2.4.

For `CS(=O)(=O)NCCC(NC(=O)C1(N)CCN(c2ncnc3[nH]ccc23)CC1)c1ccc(Cl)cc1` (racemic), the logD in [1] came to 2.2.

`NC1(C(=O)NC(c2ccc(Cl)cc2)C2CC2)CCN(c2ncnc3[nH]ccc23)CC1` (racemic): in series [1], the logD worked out at 3.4.

For `NC1(C(=O)NC(CCCN2CCOCC2)c2ccc(Cl)cc2)CCN(c2ncnc3[nH]ccc23)CC1` (racemic), the logD in series [1] worked out at 2.7.

`CC(NC(=O)C1(N)CCN(c2ncnc3[nH]ccc23)CC1)c1ccc(F)cc1` (racemic): the logD in series [1] was 2.4.

Take `NC1(C(=O)NCc2ccc(Cl)cc2)CCN(c2ncnc3[nH]ccc23)CC1`: the bioavailability was 70% in series [2], 56% in [3] and 88% in series [4]. For the same molecule, the half-life was 3 h in [5], 2.3 h in series [6] and 0.8 h in [7]. The Vd in series [8] worked out at 0.6 L/kg. Further, the values for the clearance in series [9] and in series [10] were 48 mL/min/kg and 42 mL/min/kg, respectively. Besides, the hepatocyte CLint in series [11] turned out to be 6 µL/min/1e6 cells; in [12], 19 µL/min/1e6 cells; in series [13] it was 10 µL/min/1e6 cells; in series [14], 15 µL/min/1e6 cells.

In series [1], `NC1(C(=O)NC(CCCN2CCCC2)c2ccc(Cl)cc2)CCN(c2ncnc3[nH]ccc23)CC1` (racemic) registered a logD of 1.3.

Molecule `NC1(C(=O)NC(CCCO)c2ccc(Cl)cc2)CCN(c2ncnc3[nH]ccc23)CC1` (racemic) returned a logD in series [1] of 2.8.

As to `NC(=O)C(NC(=O)C1(N)CCN(c2ncnc3[nH]ccc23)CC1)c1ccc(Cl)cc1` (racemic), the pH-dependent lipophilicity (logD) in [1] was determined as 2.2.

Molecule `NC1(C(=O)NC(c2ccccc2)c2ccc(Cl)cc2)CCN(c2ncnc3[nH]ccc23)CC1` (racemic) returned a logD in series [1] of 4.1.

For `COCCC(NC(=O)C1(N)CCN(c2ncnc3[nH]ccc23)CC1)c1ccc(Cl)cc1` (racemic), in series [1], the logD turned out to be 3.

With `CN(C)C(=O)CC(NC(=O)C1(N)CCN(c2ncnc3[nH]ccc23)CC1)c1ccc(Cl)cc1` (racemic), in [1], the logD was found to be 2.4.

Take `CCC(NC(=O)C1(N)CCN(c2ncnc3[nH]ccc23)CC1)c1ccc(Cl)cc1` (racemic): the logD in series [1] was found to be 3.5.

As for `NC1(C(=O)N[C@@H](CCN2CCCCC2)c2ccc(Cl)cc2)CCN(c2ncnc3[nH]ccc23)CC1` (racemic), the logD in series [1] is 2.4.

The molecule `C[C@@H](NC(=O)C1(N)CCN(c2ncnc3[nH]ccc23)CC1)c1ccc(Cl)cc1` yielded a logD in series [1] of 3.3.

`CC(NC(=O)C1(N)CCN(c2ncnc3[nH]ccc23)CC1)c1ccc(S(C)(=O)=O)cc1` (racemic) registered a logD in series [1] of 1.

In turn, `CC(NC(=O)C1(N)CCN(c2ncnc3[nH]ccc23)CC1)c1ccccn1` (racemic) came in with a logD in [1] of 1.3.

On to `CC(NC(=O)C1(N)CCN(c2ncnc3[nH]ccc23)CC1)c1ccc(Cl)cc1` (racemic), for which, in series [1], the logD is 2.7.

`COc1ccc(C(C)NC(=O)C2(N)CCN(c3ncnc4[nH]ccc34)CC2)cc1OC` (racemic) registered a logD in [1] of 1.8.

Turning to `CS(=O)(=O)NCC(NC(=O)C1(N)CCN(c2ncnc3[nH]ccc23)CC1)c1ccc(Cl)cc1` (racemic), the logD in series [1] worked out at 2.1.

`NC1(C(=O)NC(CS(N)(=O)=O)c2ccc(Cl)cc2)CCN(c2ncnc3[nH]ccc23)CC1` (racemic) returned a logD in series [1] of 2.2.

In series [1], `CN(C)CCCC(NC(=O)C1(N)CCN(c2ncnc3[nH]ccc23)CC1)c1ccc(Cl)cc1` (racemic) yielded a logD of 1.4.

Regarding `CC(NC(=O)C1(N)CCN(c2ncnc3[nH]ccc23)CC1)c1ccccc1` (racemic), in series [1], the logD came to 2.2.

`CC(=O)NCC(NC(=O)C1(N)CCN(c2ncnc3[nH]ccc23)CC1)c1ccc(Cl)cc1` (racemic) displayed a logD in series [1] of 2.4.

`C[C@H](NC(=O)C1(N)CCN(c2ncnc3[nH]ccc23)CC1)c1ccc(Cl)cc1` yielded a logD in series [1] of 2.7.
